Experimental data published in article PMC8125951, “Exploring the 2′-Hydroxy-Chalcone Framework for the Development of Dual Antioxidant and Soybean Lipoxygenase Inhibitory Agents” (Molecules, 2021).

Columns and labels:
[1] = Competition of the tested compounds with DMSO for hydroxyl radicals; details: 100 μM
Source text: Among the reactive oxygen species (ROS), the hydroxyl (^•OH) free radical is possibly the most toxic, reacting with several biological important molecules such as DNA, lipids, or carbohydrates. Polyunsaturated fatty acids are particularly vulnerable by free radicals. Iron released from damaged cells is more likely to be readily available to catalyze the generation of ^•OH radicals. Thus, we tried to test the ability of our compounds to scavenge hydroxyl radicals determining the competition of selected chalcones and aurones with DMSO for hydroxyl radicals. Hydroxyl radicals were generated using the Fe^3+/ascorbic acid system and expressed as a percentage inhibition of formaldehyde production in the presence of each compound at 100 μM.
The hydroxyl radicals generated by the Fe^3+ / ascorbic acid system, were detected by the determination of formaldehyde produced from the oxidation of DMSO (Table 2). A negative control using the same % DMSO was used. Trolox was used as reference compound [75].

[2] = Interaction with the stable free radical DPPH (reducing activity)
Procedure: The first assay refers to the interaction of the compounds with the stable free radical DPPH and it is a fast, simple, cost-effective, and widely used method, where the DPPH radical reacts directly with the antioxidant and is decolorized. This interaction indicates their radical scavenging ability in an iron-free system. The scavenging effect of the synthesized analogues on the DPPH radical was evaluated according to the methods of Hadjipavlou et al..
To an ethanolic solution of DPPH (100 μM) in absolute ethanol, an equal volume of the compounds dissolved in DMSO was added (100 μM). […]

[3] = Inhibition of linoleic acid lipid peroxidation induced by AAPH
Source text: The second technique is based on the ability of the compounds to inhibit lipid peroxidation of linoleic acid induced by 2,2′-Azobis(2-amidinopropane) dihydrochloride (AAPH) radical (Table 2). AAPH-induced linoleic acid oxidation has been developed as a quick and reliable method for measuring the antioxidant activity. The thermal free radical producer (AAPH) generates free radicals in the solution which cause the oxidation of linoleic acid, and the method is a measure of how effective antioxidants protect against lipid peroxidation in vitro. Oxidation of linoleic acid by AAPH is followed by UV spectrophotometry in a highly diluted sample [61].
2,2′-Azobis(2-amidinopropane) dihydrochloride (AAPH) was used as a free radical initiator. Ten microliters of the 16 mM linoleic acid sodium salt solution was added to the UV cuvette containing 0.93 mL of 0.05 M phosphate buffer, pH 7.4 prethermostated at 37 °C. The oxidation reaction was initiated at 37 °C under air by the addition of 50 μL of 40 mM AAPH solution. Oxidation was carried out in the presence of the synthesized compounds (10 μL, from a stock solution of 10 mM in DMSO). In the assay without antioxidant, lipid oxidation was measured in the presence of the same level of DMSO.

soybean lipoxygenase = target: T1, soybean lipoxygenase (Glycine max, UniProt P08170); assay: Soybean LOX inhibition study in vitro; assay type: biochemical; details: for inhibition at 100 µM: read-out: Inhibition of Soybean Lipoxygenase 100 μM (%)
T1 sequence (P08170 1-839): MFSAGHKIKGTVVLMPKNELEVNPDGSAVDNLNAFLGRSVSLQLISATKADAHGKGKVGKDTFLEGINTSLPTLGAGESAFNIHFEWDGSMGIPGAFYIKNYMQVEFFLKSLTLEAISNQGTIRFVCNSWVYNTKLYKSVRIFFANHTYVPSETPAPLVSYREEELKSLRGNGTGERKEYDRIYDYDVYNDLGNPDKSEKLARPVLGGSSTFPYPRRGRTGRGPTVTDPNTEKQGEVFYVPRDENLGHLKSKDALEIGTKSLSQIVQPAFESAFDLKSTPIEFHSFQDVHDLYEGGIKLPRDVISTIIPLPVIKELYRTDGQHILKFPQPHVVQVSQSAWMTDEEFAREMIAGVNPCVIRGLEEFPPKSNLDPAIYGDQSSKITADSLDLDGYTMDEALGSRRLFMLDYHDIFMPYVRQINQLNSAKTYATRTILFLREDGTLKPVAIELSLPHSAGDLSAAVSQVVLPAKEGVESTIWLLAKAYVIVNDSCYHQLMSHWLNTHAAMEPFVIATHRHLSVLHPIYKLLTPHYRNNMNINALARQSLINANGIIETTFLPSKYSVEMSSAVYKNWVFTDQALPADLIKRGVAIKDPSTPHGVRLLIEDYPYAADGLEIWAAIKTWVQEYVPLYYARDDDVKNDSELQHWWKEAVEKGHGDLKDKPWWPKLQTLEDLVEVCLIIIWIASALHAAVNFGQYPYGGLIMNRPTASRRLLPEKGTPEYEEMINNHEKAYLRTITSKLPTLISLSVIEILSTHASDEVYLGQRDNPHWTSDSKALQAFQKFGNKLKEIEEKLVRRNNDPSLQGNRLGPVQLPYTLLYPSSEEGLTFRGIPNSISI
Procedure: Furthermore, as an indication of their anti-inflammatory activity, all the molecules were tested as inhibitors of soybean lipoxygenase (LOX). The enzyme lipoxygenase catalyzes the first two steps in the metabolism of arachidonic acid, which is cleaved from membrane phospholipids to leukotrienes (LTB4). LTB4 generation is considered to be important in the pathogenesis of neutrophil-mediated inflammatory diseases. For this study, the UV absorbance-based soybean LOX assay was used, which is a plant enzyme with satisfactory homology with the human 5-LOX [61, 62, 63, 64, 65, 66].
The tested compounds dissolved in DMSO were incubated at room temperature with sodium linoleate (0.1 mL) and 0.2 mL of enzyme solution ([…] in saline) in Tris buffer pH 9.

[4] = ABTS radical cation decolorization assay; details: 100 μM
Procedure: The ABTS radical cation decolorization assay was used as another antioxidant activity estimation protocol (Table 2). Oxidation of ABTS with potassium persulfate generates directly the radical with no involvement of an intermediate radical, which is then reduced upon adding electron-donating antioxidants.
In order to produce the ABTS radical cation (ABTS^+·), ABTS stock solution in water (7 mM) was mixed with potassium persulfate (2.45 mM) and left in the dark at room temperature for 12–16 h before use. Our published experimental technique was used (1). The results are recorded after 1 min of the mixing solutions at 734 nm. The results were compared to the appropriate standard inhibitor Trolox.

Row | inhibition at 100 µM (soybean lipoxygenase) [%] | IC50 (soybean lipoxygenase; read-out: Inhibition of Soybean Lipoxygenase IC50) [µM] | Compound | HO· (%) competition with DMSO for hydroxyl radicals [1] | Interaction with the Free Radical DPPH (%) ([2]; 0 min) | Interaction with the Free Radical DPPH (%) ([2]; 100 μM, 20 min) | Interaction with the Free Radical DPPH (%) ([2]; 100 μM, 60 min) | Interaction with the Free Radical DPPH (%) ([2]; 3 min) | Interaction with the Free Radical DPPH (%) ([2]; 6 min) | Interaction with the Free Radical DPPH (%) ([2]; 9 min) | Inhibition of Lipid Peroxidation of Linoleic Acid Induced by AAPH Radical (%) ([3]; 100 μM) | ABTS+· % [4] | Inhibition of Lipid Peroxidation of Linoleic Acid Induced by AAPH Radical (%) ([3]; 0 min) | Inhibition of Lipid Peroxidation of Linoleic Acid Induced by AAPH Radical (%) ([3]; 3 min) | Inhibition of Lipid Peroxidation of Linoleic Acid Induced by AAPH Radical (%) ([3]; 6 min) | Inhibition of Lipid Peroxidation of Linoleic Acid Induced by AAPH Radical (%) ([3]; 9 min)
1 | – | 70 | O=C(/C=C/c1ccc(O)c(O)c1)c1cc(Br)ccc1O [Compound 4b, 5′-bromo-2′,3,4-trihydroxy-chalcone] | 100% | – | 82.4% | 82.0% | – | – | – | 82.3 | inactive and no | 81.8 | 82.6 | 82.5 | 81.5
2 | 24.4 | – | COCOc1ccc2c(c1)O/C(=C\c1ccc(OCOC)c(OCOC)c1)C2=O [Compound 6a, 3′,4′,6-tri(methoxymethoxy)-aurone] | 43% | – | no interaction and did not show any DPPH radical scavenging ability and no | no | – | – | – | 18.5 | 86% | – | – | – | –

The next lines start with the compound.

Row | Compound | inhibition at 100 µM (soybean lipoxygenase) [%] | IC50 (soybean lipoxygenase; read-out: Inhibition of Soybean Lipoxygenase IC50) [µM] | HO· (%) competition with DMSO for hydroxyl radicals [1] | Interaction with the Free Radical DPPH (%) ([2]; 0 min) | Interaction with the Free Radical DPPH (%) ([2]; 100 μM, 20 min) | Interaction with the Free Radical DPPH (%) ([2]; 100 μM, 60 min) | Interaction with the Free Radical DPPH (%) ([2]; 3 min) | Interaction with the Free Radical DPPH (%) ([2]; 6 min) | Interaction with the Free Radical DPPH (%) ([2]; 9 min) | Inhibition of Lipid Peroxidation of Linoleic Acid Induced by AAPH Radical (%) ([3]; 100 μM) | ABTS+· % [4] | Inhibition of Lipid Peroxidation of Linoleic Acid Induced by AAPH Radical (%) ([3]; 0 min) | Inhibition of Lipid Peroxidation of Linoleic Acid Induced by AAPH Radical (%) ([3]; 3 min) | Inhibition of Lipid Peroxidation of Linoleic Acid Induced by AAPH Radical (%) ([3]; 6 min) | Inhibition of Lipid Peroxidation of Linoleic Acid Induced by AAPH Radical (%) ([3]; 9 min)
3 | O=C(/C=C/c1ccc(O)c(O)c1)c1ccc(O)cc1O [Compound 4a, 2′,3,4,4′-tetrahydroxy-chalcone] | 39.3 | – | 68% | 95.4 | 95.7% | 95.3% | 95.4 | 94.9 | 95.4 | 24.4 | 86% | – | – | – | –
4 | COc1cc(OC)c(OC)cc1/C=C1\Oc2ccccc2C1=O [Compound 6b, 2′,4′,5′-trimethoxy-aurone] | 13 | – | no | – | no interaction and did not show any DPPH radical scavenging ability and no | no | – | – | – | 29.4 | 64% | – | – | – | –
5 | O=C1/C(=C/c2ccc(O)c(O)c2)Oc2cc(O)ccc21 [Compound 7a, 3′,4′,6-Trihydroxy-Aurone] | 24.5 | – | inactive and no | 92.3 | 89% | 91.2% | 94.4 | 94.9 | 94.9 | 53.2 | 71% | – | – | – | –
